pEC50: −log10 of the molar value. The source made the active and inactive calls. How the calls were made is not given here. A value given as a limit tells only on which side of the number the result lay.

The test system of this experiment is Saccharomyces cerevisiae lifespan extension, no nicotinamide. Description: yeast lifespan extension without nicotinamide, confirmation, yeast lifespan extension project, S. cerevisiae (AID 812).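 Further: growth read as optical density after 42 hours of incubation at 30C.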
With `CC1(C)CC(=O)C2=C(C1)OC1=C(C(=O)CC(C)(C)C1)C2c1ccc(O)cc1O`, the EC50 is > 40 µM (inactive). For `CSc1ccc(S(=O)(=O)NCc2ccc(Cl)cc2Cl)cc1`, the EC50 was > 40 µM (inactive). `CCCc1[nH]nc2c1C(c1ccc(Br)s1)C(C#N)=C(N)O2` (centres undefined): the EC50 was > 40 µM (inactive). `CCOC(=O)C1=C(C)Nc2nc(=S)[nH]n2C1c1ccc(Cl)cc1` (centres undefined): the EC50 was > 40 µM (inactive).

For `COc1cc(OC)cc(-c2nc3ccccc3c(=O)n2OC(=O)c2ccc(Br)cc2)c1`, the EC50 was > 40 µM (inactive).

For the compound `CCc1ccc(CC2S/C(=C(\C#N)C(C)=O)NC2=O)cc1` (centres undefined), the EC50 was > 40 µM (inactive). `COc1cccc(C(=O)Oc2cc(N)n(S(=O)(=O)c3ccc(C)cc3)n2)c1OC`: the EC50 was > 40 µM (inactive). As for `CC1=NN(c2ccc(C(F)(F)F)cn2)C(=O)C1`, the EC50 is > 40 µM (inactive). As for `Cc1ccc(C(=O)NNC(=S)NC(=O)c2ccc(Cl)cc2)cc1`, the EC50 is > 40 µM (inactive). Still for that read-out and setting: in the case of `O=C(NC(=S)Nc1nc2c(s1)CSc1ccccc1-2)c1ccccc1` it was > 40 µM (inactive); in that of `O=S1(=O)C=C(Sc2nnc(-c3ccccc3)o2)c2ccccc21`, > 40 µM (inactive); in that of `O=C(Nc1nccs1)c1ccc2c(=O)n3c(nc2c1)CCCCC3`, > 40 µM (inactive).

`COc1ccc(C(C)NC(=O)c2ccccc2)cc1` (centres undefined): the EC50 was > 40 µM (inactive). For the compound `O=C(N/N=C/c1ccc(F)cc1)c1c(O)c2ccccc2[nH]c1=O`, the EC50 was > 40 µM (inactive). In the case of `CCOc1ccccc1/C=c1\sc2ncnn2c1=O`, the EC50 is > 40 µM (inactive). `CN1C(=O)/C(=C/c2cccn2-c2ccc3ccccc3c2)C(=O)NC1=S`: the EC50 was > 40 µM (inactive). As to `O=C1C=CCC(/C=C/c2ccccc2)O1` (centres undefined), the EC50 was > 40 µM (inactive). Turning to `O=c1c2ccccc2nc(-c2cccc(Cl)c2)n1O`, the EC50 was > 40 µM (inactive).

For `CC(C)(C)OC(=O)[C@H]1[C@H](c2ccc([N+](=O)[O-])cc2)C2(C(=O)c3ccccc3C2=O)C2c3ccccc3C=NN21` (some centres undefined), the EC50 is > 40 µM (inactive). Turning to `COc1cc(/C=C/C(=O)c2c(O)cc(C)oc2=O)cc(OC)c1O`, the EC50 is > 40 µM (inactive). On the same count and under the same terms, in the case of `O=c1c2ccccc2sn1-c1ccccc1` it was > 40 µM (inactive); in that of `CCOc1ccc2nc(NCCNC(=O)Nc3ccccc3)c(C#N)cc2c1`, > 40 µM (inactive). As to `CCOC(=O)c1[nH]nc(C(=O)c2ccc(Br)cc2)c1O`, the EC50 was > 40 µM (inactive). In the case of `Cc1cccc(N2C(=O)/C(=C\c3ccc(OC(F)F)cc3)c3ccccc3C2=O)c1`, the EC50 was > 40 µM (inactive). For `COc1ccc(CC(=O)Nc2ccc3c(c2)CCC3)cc1S(=O)(=O)N1CCOCC1`, the EC50 is > 40 µM (inactive).

Consider `Cc1c(O)c(S(=O)c2ccccc2)c(=O)n(-c2ccccc2)c1-c1ccccc1` (centres undefined), for which the EC50 is > 40 µM (inactive). Still for that read-out and setting: in the case of `Cc1cc(C)n(-c2ccc(OCC(=O)O)nn2)n1` it was > 40 µM (inactive); in that of `CN1OC(c2ccccc2)=C(CO)C1c1ccccc1` (centres undefined), > 40 µM (inactive).

Take `COc1ccccc1CNC(=O)C(CCSC)NS(=O)(=O)c1ccc2c(c1)oc(=O)n2C` (centres undefined): the EC50 is > 40 µM (inactive).

As to `CCOC(=O)C1C(c2cccs2)NC(=O)N(C)C1(O)C(F)(F)F` (centres undefined), the EC50 was > 40 µM (inactive).

For the compound `O=C(O)c1ccc(O)c(N2C(=O)Nc3ccccc3N2O)c1`, the EC50 is > 40 µM (inactive). For the compound `CN1CCC2(CC1)C(C#N)=C(N)NC(S)=C2C#N`, the EC50 was > 40 µM (inactive). For `CC1C/C(=C\c2cccnc2)C(=O)/C(=C/c2cccnc2)C1` (centres undefined), the EC50 is > 40 µM (inactive). On to `Cc1cc(N=Cc2c(O)ccc3ccccc23)no1`, for which the EC50 is > 40 µM (inactive). As for `CC1(C)CC(=O)C(C(=O)Cc2ccccc2[N+](=O)[O-])C(=O)C1`, the EC50 is > 40 µM (inactive). As for `CCCn1c(C)cc(C(=O)COc2ncnc3sccc23)c1C`, the EC50 is > 40 µM (inactive). On to `Cc1cc(C)c(NC(=O)/C(=C/c2ccccc2)c2ccccc2)c(C)c1`, for which the EC50 was > 40 µM (inactive). As for `Cc1nc2c(=O)n(C)c(=O)n(C)c2nc1Cl`, the EC50 was > 40 µM (inactive). On the same count and under the same terms, in the case of `C=C1C(=O)C=C2CN(C(=O)c3ccccc3)[C@@](Cc3ccc(F)cc3)(C(=O)OC)[C@@H]12` it was > 40 µM (inactive); in that of `COc1ccc(NCc2nc3ccccc3n2CCOc2ccccc2)cc1`, > 40 µM (inactive); in that of `CN(C)C=C1C(=O)N(C2CCCCC2)C(=O)N(C2CCCCC2)C1=O`, > 40 µM (inactive). On to `O=C(O)Cc1ccc(N=Cc2c(O)ccc3ccccc23)cc1`, for which the EC50 was > 40 µM (inactive). Turning to `CCCCOC(=O)n1c(=O)oc2cc(S(=O)(=O)N3CCCCC3)ccc21`, the EC50 is > 40 µM (inactive). Take `C=C(C(=O)c1ccccc1)C(C)C(=C)C(=O)c1ccccc1`: the EC50 was > 40 µM (inactive). `Cc1cc(C(=O)CN2C(=O)NC(C)(CC(C)C)C2=O)c(C)n1-c1ccc2c(c1)OCO2` (centres undefined): the EC50 was > 40 µM (inactive).

In the case of `Fc1cccc2sc(Nc3nnc(-c4ccco4)o3)nc12`, the EC50 is > 40 µM (inactive). For the compound `CCCn1[nH]cc(SC)c(=O)c1=O`, the EC50 was > 40 µM (inactive).

On to `COc1ccc(CNC(=O)C2CCN(c3nc(OC)nc(OC)n3)CC2)cc1`, for which the EC50 was > 40 µM (inactive). On to `Cc1cc(N2C(=O)CC(Cc3ccccc3)C2=O)no1` (centres undefined), for which the EC50 is > 40 µM (inactive).

For the compound `CC(C)Cc1nn2c(=O)cc(O)nc2s1`, the EC50 is > 40 µM (inactive).

For the compound `Cc1ccc(NC(=O)CN2CCN(CCN=CC3=C(O)CC(c4ccccc4)CC3=O)CC2)cc1` (centres undefined), the EC50 is > 40 µM (inactive).

In the case of `CCCCC(c1nnnn1CC1CCCO1)N1CCN(c2nc3ccccc3s2)CC1` (centres undefined), the EC50 is > 40 µM (inactive). `CCn1ncc(/C=N/NC(=O)c2ccc3c(c2)OCO3)c1C`: the EC50 was > 40 µM (inactive).

As for `CC(=O)c1c(O)cc2n(c1=O)-c1ccc(Cl)cc1C2(C)C`, the EC50 was > 40 µM (inactive).

For the compound `O=S1(=O)C=C(Sc2nc3ccccc3s2)c2ccccc21`, the EC50 was > 40 µM (inactive).

For the compound `O=C1c2ccccc2NC(c2cnc3ccccc3n2)N1O` (centres undefined), the EC50 is > 40 µM (inactive). Regarding `CCC1C/C(=C\c2cccnc2)C(=O)/C(=C/c2cccnc2)C1` (centres undefined), the EC50 is > 40 µM (inactive). The same measure, in the same setting: in the case of `CCOc1ccc(C2=NNC(c3cccs3)=Nc3ccc(OCC)cc32)cc1` it was > 40 µM (inactive); in that of `CC(=O)Oc1ccccc1N1C(=O)c2ccc(C(=O)O)cc2C1=O`, > 40 µM (inactive); in that of `Cn1c(SCC(=O)N2CCCc3ccccc32)nnc1-c1c[nH]c2ccccc12`, > 40 µM (inactive). Take `Cc1ccc(S(=O)(=O)Nc2ccccc2/C=N/c2nc3ccccc3n2C(C)C)cc1`: the EC50 is > 40 µM (inactive). With `CCCCC(=O)Nc1ccc(C(=O)NNC(=S)NC(=O)c2cccs2)cc1`, the EC50 is > 40 µM (inactive).

Turning to `O=C(Oc1cc(=O)n2ccccc2n1)c1ccccc1`, the EC50 was > 40 µM (inactive).

For the compound `Cc1ccc(/C=C/C(=O)C2C(=O)c3ccccc3C2=O)cc1`, the EC50 was > 40 µM (inactive). As for `CCCC[n+]1c(-c2ccc(Cl)cc2Cl)csc1Nc1ccccc1`, the EC50 was > 40 µM (inactive). As to `CC1Cc2ccccc2N1C(=O)Cn1cnc2ccccc2c1=O` (centres undefined), the EC50 is > 40 µM (inactive). Take `CCOC(=O)COc1ccccc1/C=C\[N+](=O)[O-]`: the EC50 was > 40 µM (inactive). Consider `CC(=O)[C@H]1[C@H](c2cccc(Cl)c2)C(C#N)(C#N)[C@@H]2c3ccccc3C=CN21`, for which the EC50 is > 40 µM (inactive).

In the case of `O=C(CCN1CCCCCC1)Nc1ccc(F)cc1`, the EC50 was > 40 µM (inactive). Take `CCCCC(=Nc1ccc(N)cc1)C1=C(O)C(C(=O)OC)C(C)(C)CC1=O` (centres undefined): the EC50 was > 40 µM (inactive).

For the compound `CCn1ccc(C(=O)Nc2ccc(S(=O)(=O)Nc3ccccc3OC)cc2)n1`, the EC50 was > 40 µM (inactive). Consider `C/C(=N\NC(=O)c1ccccc1O)c1c(O)cc(C)oc1=O`, for which the EC50 was > 40 µM (inactive).

On to `C/C(=N\NC(=O)c1ccccc1O)C1C(=O)c2ccccc2C1=O`, for which the EC50 is > 40 µM (inactive).

For the compound `CC(C)c1noc2ncc(C(=O)c3cc(Cl)cc(Cl)c3O)cc12`, the EC50 is > 40 µM (inactive). Same read-out and setting: in the case of `CC(=O)Nc1c(O)nc(SCc2ccccc2C#N)[nH]c1=O` it was > 40 µM (inactive); in that of `CCOC(=O)C1=C(N)OC2=C(C(=O)CCC2)C1c1sccc1C` (centres undefined), > 40 µM (inactive); in that of `Cc1ccccc1NC(=O)c1ccccc1`, > 40 µM (inactive). The same measure, in the same setting: in the case of `CC(C)C(c1nnnn1Cc1ccccc1)N1CCN(Cc2ccc3c(c2)OCO3)CC1` (centres undefined) it was > 40 µM (inactive).

Take `CCOC(=O)c1c(C)oc2c1c(C(c1cccnc1)N1CCCCC1)c(O)c1ccccc12` (centres undefined): the EC50 was > 40 µM (inactive). Consider `CCc1nc(SCC(=O)c2ccc3c(c2)OCCO3)c2ccccc2n1`, for which the pEC50 is 4.72. Consider `CCOC(=O)CSC1=NC(=O)/C(=C/c2ccc(OC)cc2)S1`, for which the EC50 is > 40 µM (inactive).

`Cc1ccc(/C(O)=C2\C(=O)C(=O)N(c3cc(C)on3)C2c2cccc(Cl)c2)cc1` (centres undefined): the EC50 was > 40 µM (inactive).

For `COc1ccc(N(C)C(=S)Nc2ccc3nc(C)c(C)nc3c2)cc1`, the EC50 was > 40 µM (inactive). Same read-out and setting: in the case of `COc1cc(OC)cc(-c2nc3ccccc3c(=O)n2OC(=O)c2ccc(C)c(C)c2)c1` it was > 40 µM (inactive); in that of `CN1C(=O)C(Cl)(Cl)C(=O)c2ccccc21`, > 40 µM (inactive); in that of `CCCNC(=O)CCC(NS(=O)(=O)c1ccc(C)cc1)C(=O)NCCC` (centres undefined), > 40 µM (inactive). The same measure, in the same setting: the same measure for `O=S(=O)(ON(c1ccccc1)S(=O)(=O)c1ccccc1)c1ccccc1`: > 40 µM (inactive); for `O=c1cc(-c2ccccc2Cl)oc2ccc([N+](=O)[O-])c(O)c12`: > 40 µM (inactive). On the same count and under the same terms, in the case of `CCSc1nnc(NC(=O)CSc2nc(C)cc(C)n2)s1` it was > 40 µM (inactive).

As usually defined, the EC50 is the concentration needed to bring the measured effect to its halfway point. As a reminder, the pEC50 is the negative decadic logarithm of the EC50, by convention in mol/L.
